SMILES strings stand for the structures. Values joined by “and” are separate entries in the source; they are usually repeats but may differ in a detail not shown here. Identical values can stand only once.

The nature of this data set: solvent given as SMILES.

In the case of `C(#Cc1ccccc1C#Cc1ccccc1)c1ccccc1`, the fluorescence lifetime (in CC#N) came to 1.47 ns.

For `CC1=[N+]2C(=C(NC(C)c3ccccc3)c3ccc(C)n3[B-]2(F)F)C=C1c1cc2n(c1)[B-](F)(F)[N+]1=CC=CC1=C2c1c(C)cc(C)cc1C` (centres undefined), the fluorescence lifetime by setting is: (in C1CCCCC1) 2.07 ns; (in CCOC(C)=O) 0.52 ns.

In turn, `CCN(CC)c1ccc2c(-c3ccccc3C(=O)O)c3c([o+]c2c1)/C(=C/c1nc(C)n2ccccc12)CCC3` yielded a fluorescence lifetime (in ClCCl) of 2.21 ns.

`CC1=C(c2cccs2)C(C)=[N+]2C1=C(c1ccc(OS(=O)(=O)c3ccc([N+](=O)[O-])cc3[N+](=O)[O-])cc1)c1c(C)c(-c3cccs3)c(C)n1[B-]2(F)F`: the fluorescence lifetime (in Cc1ccccc1) turned out to be 3.6 ns.

The molecule `CCCCCCCCCCCCOc1cc2c3c(ccc4c5c(SCCCCCCCCCCCC)cc6c7c(ccc(c1c34)c75)C(=O)N(C1CCCCC1)C6=O)C(=O)N(C1CCCCC1)C2=O` yielded a fluorescence lifetime (in ClC(Cl)Cl) of 7.8 ns.

The molecule `CN(C)c1ccc2nc(-c3ccc(/C=N/Nc4ccccc4)cc3)sc2c1` had a fluorescence lifetime (in C1CCCCC1) of 2 ns.

Under “in ClC(Cl)Cl”, `COc1cc(OC)c2cc(-c3cccc(-c4cc5c(OC)cc(OC)cc5oc4=O)c3)c(=O)oc2c1` had a fluorescence lifetime of 2.6 ns.

In the case of `c1ccc(-c2cc(-c3nnc(-c4ccc(N5c6ccccc6Oc6ccccc65)cc4)o3)c(-c3ccccc3)c(-c3ccccc3)c2-c2ccccc2)cc1`, under “in c1ccc(-n2c(-c3c(-n4c5ccccc5c5ccccc54)cccc3-n3c4ccccc4c4ccccc43)nc3ccccc32)cc1”, the fluorescence lifetime came to 4.1 ns.

As for `C#CCN1C(=O)/C(=C/c2cc(OC(C)C)ccc2OC(C)C)N=C1C`, the fluorescence lifetime by setting is: (in C1COCCO1) 1.66 ns; (in CC#N) 2.22 ns; (in CC(C)=O) 2.17 ns; (in CCCCCC) 0.89 ns; (in CCCCO) 0.82 ns; (in CCCO) 0.85 ns. For the same molecule, the fluorescence lifetime runs as follows: (in CCO) 1 ns; (in CCOC(C)=O) 1.5 ns; (in CN(C)C=O) 2.62 ns; (in CO) 1.1 ns; (in CS(C)=O) 3.03 ns.

As for `CCCCCCCCCCCCCCCCCCN1C(=O)c2ccc3c4ccc5c6c(ccc(c7ccc(c2c37)C1=O)c64)C(=O)NC5=O`, the fluorescence lifetime (in CN(C)C=O) came to 3 ns.

As to `CC(C)(C)NC(=O)c1cc2ccc3cccc4ccc(c1C(=O)NC(C)(C)C)c2c34`, the fluorescence lifetime (in ClC(Cl)Cl) came out at 17.2 ns.

On to `CCCn1c2cccc3oc4cccc5oc6cccc1c6[c+](c45)c32`, for which the fluorescence lifetime (in CC#N) worked out at 23.2 ns, the fluorescence lifetime (in CO) stood at 20.7 ns, the fluorescence lifetime (in ClCCl) was found to be 21.8 ns and the fluorescence lifetime (in OCC(O)CO) was 19.7 ns.

For the molecule `CN(C)c1ccccc1`, the fluorescence lifetime (in C1CCCCC1) is 3 ns.

For the setting “in c1ccc2c(c1)c1ccccc1n2-c1ccc(-c2ccc(-n3c4ccccc4c4ccccc43)cc2)cc1”, `O=P1(c2ccccc2)c2ccc(N3c4ccccc4Oc4ccccc43)cc2-c2cc(N3c4ccccc4Oc4ccccc43)ccc21` yielded a fluorescence lifetime of 35.1 ns.

For the molecule `CC1=CC(C)=[N+]2C1=Cc1c3ccccc3c(C#Cc3ccc(F)cc3)n1[B-]2(F)F`, the fluorescence lifetime runs as follows: (in CCCCCC) 5.44 ns; (in CCCCCCCCO) 5.07 ns; (in CCOC(C)=O) 5.32 ns; (in CN(C)C=O) 4.92 ns.

On to `COc1ccc(-c2nnc(-c3cc(-c4nnc(-c5ccc(OC)cc5)o4)c(-n4c5ccccc5c5ccccc54)cc3-n3c4ccccc4c4ccccc43)o2)cc1`, for which the fluorescence lifetime is, setting by setting: (in Cc1ccccc1) 5.1 ns; (in O=P(c1ccccc1)(c1ccccc1)c1ccccc1Oc1ccccc1P(=O)(c1ccccc1)c1ccccc1) 7.3 ns.

`O=c1oc2ccccc2cc1-c1nc2ccccc2o1`: the fluorescence lifetime amounted to 3.47 ns (in CO), 3.17 ns (in ClC(Cl)(Cl)Cl) and 3.78 ns (in OCCO).

Where the note is “in Cc1ccccc1”, `Fc1c(-n2c3ccccc3c3ccccc32)c(F)c(-n2c3ccccc3c3ccccc32)c(-c2nnc(-c3ccccc3)o2)c1-n1c2ccccc2c2ccccc21` gave a fluorescence lifetime of 3.9 ns.

In the case of `COc1ccc2cc(C#N)c(=N)oc2c1`, the fluorescence lifetime (in ClCCl) amounted to 2.5 ns.

Regarding `CCn1c2ccccc2c2cc(C#Cc3cc(C#Cc4ccc5c(c4)c4ccccc4n5CC)nc(N4CCCCC4)n3)ccc21`, the fluorescence lifetime (in C1CCOC1) was 2.9 ns.

Consider `Nc1ccc2c(c1)C(=O)NC2=O`, for which the fluorescence lifetime is, setting by setting: (in C1CCOC1) 12.4 ns and 20.8 ns; (in C1COCCO1) 15 ns; (in CC#N) 14 ns; (in CCO) 10 ns; (in CN(C)C=O) 22 ns.

The molecule `CCN(CC)c1ccc(-c2nc3c(nc2-c2ccc(B(c4c(C)cc(C)cc4C)c4c(C)cc(C)cc4C)cc2)c2ccccc2n3C)cc1` yielded a fluorescence lifetime (in C1CCOC1) of 2.33 ns.

`Cn1c(-c2ccc(-c3nc(-c4ccccc4)c(-c4ccccc4)n3C)cc2)nc(-c2ccccc2)c1-c1ccccc1`: under “in CC#N”, the fluorescence lifetime was 1.24 ns and 1.1 ns.

On to `F[B-]1(F)n2c(c3c(c2-c2ccccc2)C2C=CC3CC2)C(c2ccccc2)=C2C3=C(C(c4ccccc4)=[N+]21)C1C=CC3CC1` (centres undefined), for which the fluorescence lifetime (in ClCCl) was 6.1 ns.

`C(=C\c1ccccc1/C=C/c1c2ccccc2cc2ccccc12)/c1ccncc1` displayed a fluorescence lifetime (in C1CCOC1) of 3.38 ns.

For the setting “in C1CCOC1”, `CCn1c2ccccc2c2cc(-c3cc(-c4ccc5c(c4)c4ccccc4n5CC)nc(-c4ccc(OC)cc4)n3)ccc21` had a fluorescence lifetime of 1.63 ns.

`CC(C)[Si](C#CC1=CC2=c3cc(C#C[Si](C(C)C)(C(C)C)C(C)C)c4nc(C(F)(F)C(F)(F)C(F)(F)F)nc5c(C#C[Si](C(C)C)(C(C)C)C(C)C)cc(c3c54)C3=CC(C#C[Si](C(C)C)(C(C)C)C(C)C)=C4N=C(C(F)(F)C(F)(F)C(F)(F)F)N=C1C4C32)(C(C)C)C(C)C` (centres undefined) had a fluorescence lifetime (in C1CCOC1) of 2 ns.

The molecule `C[Si]1(C)c2ccccc2-c2ccccc21` came in with a fluorescence lifetime (in ClCCl) of 0.15 ns.

Molecule `CCOC(=O)CCCCCn1c2ccc(N)cc2c(=O)c2cc3c(cc21)c(=O)c1cc(N)ccc1n3CCCCCC(=O)OCC` had a fluorescence lifetime (in ClCCl) of 15.6 ns.

Under “in ClC(Cl)Cl”, `COc1cc2c3cc(OC)c(OC)cc3c3cc4c(C)cc(=O)oc4cc3c2cc1OC` had a fluorescence lifetime of 4.6 ns.

Turning to `CC(C)(C)c1ccc(-c2c3c(c(-c4ccccc4)c4cc5ccccc5cc24)Cc2c(c(-c4ccccc4)c4cc5ccccc5cc4c2-c2ccc(C(C)(C)C)cc2)C3)cc1`, the fluorescence lifetime (in ClCCl) is 2.67 ns.

As to `c1ccc2c(c1)CCc1c-2cnc2c1-c1ccccc1CC2`, the fluorescence lifetime by setting is: (in C1CCOC1) 3.33 ns; (in CC#N) 3.66 ns; (in CCCCCC) 3.14 ns; (in CCOC(C)=O) 3.46 ns; (in CO) 3.96 ns; (in CS(C)=O) 3.88 ns. Also, the fluorescence lifetime by setting is: (in Cc1ccccc1) 3.24 ns; (in ClCCl) 3.67 ns.

As for `CC1=N/C(=C\c2cc(N(C)C)ccc2C#N)C(=O)N1C`, the fluorescence lifetime was 14.8 ns (in C1CCOC1), 7 ns (in CC#N) and 24.7 ns (in CCCCCC).

`CCOC(=O)C1=CN(c2ccccc2)C=CC1c1ccccc1` (centres undefined) yielded a fluorescence lifetime (in C1CCOC1) of 7.14 ns and a fluorescence lifetime (in CO) of 7.55 ns.

Consider `CCC1(CC)c2cc(N(c3ccccc3)c3ccccc3)ccc2-c2c1c1c(c3c2C(CC)(CC)c2cc(N(c4ccccc4)c4ccccc4)ccc2-3)C(CC)(CC)c2cc(N(c3ccccc3)c3ccccc3)ccc2-1`, for which, for the setting “in C1CCOC1”, the fluorescence lifetime amounted to 2.1 ns.

`CCOC(=O)/N=c1/oc2cc(N(CC)CC)ccc2cc1C#N` yielded a fluorescence lifetime (in ClCCl) of 3.6 ns.

Regarding `COc1ccc2cc(-c3ccc([N+](=O)[O-])cc3)ccc2c1`, the fluorescence lifetime by setting is: (in C1CCOC1) 0.33 ns; (in CC#N) 0.22 ns; (in ClC(Cl)Cl) 1.87 ns; (in ClCCl) 2.04 ns.

Turning to `Cc1cc(-c2ccc(-c3ccccc3)cc2)cc(C)[o+]1`, the fluorescence lifetime (in ClCCl) worked out at 3.4 ns.

`CCC1(CC)c2cc(B(c3c(C)cc(C)cc3C)c3c(C)cc(C)cc3C)ccc2-c2c1c1c(c3c2C(CC)(CC)c2cc(N(c4ccccc4)c4ccccc4)ccc2-3)C(CC)(CC)c2cc(B(c3c(C)cc(C)cc3C)c3c(C)cc(C)cc3C)ccc2-1` had a fluorescence lifetime (in C1CCOC1) of 18.1 ns.

`OCc1cc2c(cc3ccc4cccc5ccc2c3c45)[nH]1`: the fluorescence lifetime (in CCOC(C)=O) came to 2.64 ns.

Regarding `CCCCCCC(CCCCCC)N1C(=O)c2cccc3c(-c4ccc(OC)c5ccccc45)ccc(c23)C1=O`, the fluorescence lifetime came out at 1.7 ns (in CCCCCC); 1.83 ns (in CCCCCCCCCCCCCC); 4.85 ns (in CCCCCCCCCCCO); 1.8 ns (in CCCCO); 3.85 ns (in CN(C)C=O); 1.53 ns (in Cc1ccccc1). Besides, the fluorescence lifetime (in ClC(Cl)Cl) came to 4.07 ns.

For `C[Si]1(C)c2cc(-c3ccccc3)ccc2C=Cc2ccc(-c3ccccc3)cc21`, where the note is “in ClCCl”, the fluorescence lifetime turned out to be 1.6 ns.

The molecule `[O-]c1c(-c2nc3ccccc3s2)cc2ccc3cccc4ccc1c2c34` showed a fluorescence lifetime (in CC#N) of 3.81 ns and a fluorescence lifetime (in CS(C)=O) of 4.7 ns.

Under “in ClCCl”, `CCCCOc1ccc(-c2cc3c(o2)c(-c2ccc(OCCCC)cc2)c2n3[B-](F)(F)[N+]3=Cc4c(-c5ccc(OCCCC)cc5)c5oc(-c6ccc(OCCCC)cc6)cc5n4[B-](F)(F)[N+]3=C2)cc1` yielded a fluorescence lifetime of 2.59 ns.

For `Cc1ccc(-c2cc(C)[o+]c(C)c2)cc1`, the fluorescence lifetime was 8.7 ns (in CC#N) and 3.3 ns (in ClCCl).

The molecule `c1ccc(-c2nc(-c3ccccc3)nc(-c3cc(-n4c5ccccc5c5ncccc54)cc(-n4c5ccccc5c5ncccc54)c3)n2)cc1` came in with a fluorescence lifetime (in O=P(c1ccccc1)(c1ccccc1)c1ccc2oc3ccc(P(=O)(c4ccccc4)c4ccccc4)cc3c2c1) of 6.6 ns.

For the setting “in CC#N”, `COc1ccc(-c2csc(/C(C#N)=C/c3c(Cl)cccc3Cl)n2)cc1` showed a fluorescence lifetime of 4.07 ns.

`CCn1c2ccccc2c2c3nsnc3c3c4ccccc4n(CC)c3c21`: the fluorescence lifetime runs as follows: (in CN(C)C=O) 1.07 ns; (in Cc1ccccc1) 0.97 ns; (in ClCCl) 1 ns.

`[NH3+]c1ccc2ccc([O-])cc2c1`: the fluorescence lifetime (in O) worked out at 13.5 ns.

In the case of `CCN(CC)/C(C)=N\c1ccc2c3c(cccc13)C(=O)c1ccccc1-2`, for the setting “in ClC(Cl)Cl”, the fluorescence lifetime was found to be 8.07 ns.

`CN(C)c1ccc(/C=C/c2ccc(-c3nc(C#N)c(C#N)n3C)cc2)cc1`: the fluorescence lifetime (in C1CCCCC1) stood at 0.7 ns and the fluorescence lifetime (in ClC(Cl)Cl) was found to be 0.7 ns.

(Values after the Deep4Chem optical property database.)
